Experimental data published in ChEMBL document CHEMBL3286148, “Aminoazabenzimidazoles, a novel class of orally active antimalarial agents” (J Med Chem, 2014).
Converted amounts (≈) assume the structure as drawn. The source made the active and inactive calls. The rule behind the calls is not given here.

Columns and labels:
[1] = Clearance in rat hepatocytes assessed per 1E6 cells; format: ADME, cell-based, Hepatocyte; conditions: read-out: CLH
[2] = Clearance in human liver microsomes; format: ADME; conditions: read-out: CLH
[3] = Clearance in mouse liver microsomes; format: ADME; conditions: read-out: CLH
Plasmodium falciparum [4] = experiment: microbe, parasite or virus in culture; conditions: NF54, 72 h
[5] = Selectivity index, ratio of IC50 for human A549 cells to IC50 for Plasmodium falciparum; format: toxicity, cell-based; conditions: read-out: Ratio IC50
Plasmodium falciparum [6] = experiment: microbe, parasite or virus in culture; conditions: K1, 72 h
[7] = Aqueous solubility of the compound; format: physicochemical; conditions: buffer
Cytochrome P450 2C19 = Cytochrome P450 2C19 (Homo sapiens, UniProt P33261); experiment: Inhibition of CYP2C19 (unknown origin); format: ADME
Cytochrome P450 2C19, sequence (P33261 whole entry): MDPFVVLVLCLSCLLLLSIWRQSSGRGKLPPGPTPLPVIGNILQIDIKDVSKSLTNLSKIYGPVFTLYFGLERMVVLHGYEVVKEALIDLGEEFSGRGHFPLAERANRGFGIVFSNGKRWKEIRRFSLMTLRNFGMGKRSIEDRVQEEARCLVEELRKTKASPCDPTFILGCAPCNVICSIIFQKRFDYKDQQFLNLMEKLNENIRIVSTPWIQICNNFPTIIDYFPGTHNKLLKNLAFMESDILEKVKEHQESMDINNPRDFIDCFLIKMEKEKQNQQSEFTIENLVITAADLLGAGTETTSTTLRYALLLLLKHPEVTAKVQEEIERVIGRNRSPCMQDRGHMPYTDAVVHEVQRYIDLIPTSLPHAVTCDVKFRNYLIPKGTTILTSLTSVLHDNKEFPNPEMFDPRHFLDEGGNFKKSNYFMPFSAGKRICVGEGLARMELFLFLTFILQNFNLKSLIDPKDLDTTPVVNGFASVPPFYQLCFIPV

[8] = Fraction unbound in human plasma; format: ADME, cell-free
Cytochrome P450 3A4 = Cytochrome P450 3A4 (Homo sapiens, UniProt P08684); experiment: Inhibition of CYP3A4 (unknown origin); format: ADME
Cytochrome P450 3A4, sequence (P08684 whole entry): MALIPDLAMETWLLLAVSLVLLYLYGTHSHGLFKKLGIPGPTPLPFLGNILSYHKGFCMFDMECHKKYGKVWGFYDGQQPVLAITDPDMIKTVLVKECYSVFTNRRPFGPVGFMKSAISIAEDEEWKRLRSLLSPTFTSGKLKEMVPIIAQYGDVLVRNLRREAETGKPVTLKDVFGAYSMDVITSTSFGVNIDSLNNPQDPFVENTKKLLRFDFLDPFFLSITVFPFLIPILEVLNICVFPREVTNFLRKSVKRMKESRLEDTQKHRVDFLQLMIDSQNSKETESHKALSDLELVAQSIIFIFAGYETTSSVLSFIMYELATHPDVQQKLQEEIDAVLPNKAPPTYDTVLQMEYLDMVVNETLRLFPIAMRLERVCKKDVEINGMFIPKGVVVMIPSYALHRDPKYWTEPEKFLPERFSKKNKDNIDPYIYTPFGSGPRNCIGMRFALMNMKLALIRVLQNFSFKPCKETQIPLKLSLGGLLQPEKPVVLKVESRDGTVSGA

Cytochrome P450 2D6 = Cytochrome P450 2D6 (Homo sapiens, UniProt P10635); experiment: Inhibition of CYP2D6 (unknown origin); format: ADME
Cytochrome P450 2D6, sequence (P10635 whole entry): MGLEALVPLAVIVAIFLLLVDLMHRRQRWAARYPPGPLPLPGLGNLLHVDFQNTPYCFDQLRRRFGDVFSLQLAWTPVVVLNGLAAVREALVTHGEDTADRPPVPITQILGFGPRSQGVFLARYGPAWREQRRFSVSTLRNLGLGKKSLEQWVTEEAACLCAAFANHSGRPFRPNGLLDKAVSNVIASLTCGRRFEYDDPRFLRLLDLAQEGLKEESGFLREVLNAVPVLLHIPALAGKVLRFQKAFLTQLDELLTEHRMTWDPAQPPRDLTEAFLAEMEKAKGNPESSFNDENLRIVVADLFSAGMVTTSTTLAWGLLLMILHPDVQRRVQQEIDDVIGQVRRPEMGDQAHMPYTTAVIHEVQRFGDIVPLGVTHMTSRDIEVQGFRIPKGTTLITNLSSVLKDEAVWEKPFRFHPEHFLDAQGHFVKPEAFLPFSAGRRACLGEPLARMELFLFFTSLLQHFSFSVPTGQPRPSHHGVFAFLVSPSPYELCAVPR

Cytochrome P450 2C9 = Cytochrome P450 2C9 (Homo sapiens, UniProt P11712); experiment: Inhibition of CYP2C9 (unknown origin); format: ADME
Cytochrome P450 2C9, sequence (P11712 whole entry): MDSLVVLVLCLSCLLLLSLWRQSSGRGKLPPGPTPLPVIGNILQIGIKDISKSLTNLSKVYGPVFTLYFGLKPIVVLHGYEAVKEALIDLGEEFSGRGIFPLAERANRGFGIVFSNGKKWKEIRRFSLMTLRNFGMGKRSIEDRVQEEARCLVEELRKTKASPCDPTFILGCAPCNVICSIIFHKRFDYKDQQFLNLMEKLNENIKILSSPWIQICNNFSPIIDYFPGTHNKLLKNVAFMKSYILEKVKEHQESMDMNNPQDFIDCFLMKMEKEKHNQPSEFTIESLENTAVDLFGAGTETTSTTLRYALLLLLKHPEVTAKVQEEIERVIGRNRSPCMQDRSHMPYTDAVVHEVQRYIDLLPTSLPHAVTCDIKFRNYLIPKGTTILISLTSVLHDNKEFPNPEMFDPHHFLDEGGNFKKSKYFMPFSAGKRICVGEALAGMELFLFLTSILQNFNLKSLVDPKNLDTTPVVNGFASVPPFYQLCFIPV

[9] = biological target: Voltage-gated inwardly rectifying potassium channel KCNH2 (Homo sapiens, UniProt Q12809); experiment: Inhibition of human ERG
Voltage-gated inwardly rectifying potassium channel KCNH2, sequence (Q12809 whole entry): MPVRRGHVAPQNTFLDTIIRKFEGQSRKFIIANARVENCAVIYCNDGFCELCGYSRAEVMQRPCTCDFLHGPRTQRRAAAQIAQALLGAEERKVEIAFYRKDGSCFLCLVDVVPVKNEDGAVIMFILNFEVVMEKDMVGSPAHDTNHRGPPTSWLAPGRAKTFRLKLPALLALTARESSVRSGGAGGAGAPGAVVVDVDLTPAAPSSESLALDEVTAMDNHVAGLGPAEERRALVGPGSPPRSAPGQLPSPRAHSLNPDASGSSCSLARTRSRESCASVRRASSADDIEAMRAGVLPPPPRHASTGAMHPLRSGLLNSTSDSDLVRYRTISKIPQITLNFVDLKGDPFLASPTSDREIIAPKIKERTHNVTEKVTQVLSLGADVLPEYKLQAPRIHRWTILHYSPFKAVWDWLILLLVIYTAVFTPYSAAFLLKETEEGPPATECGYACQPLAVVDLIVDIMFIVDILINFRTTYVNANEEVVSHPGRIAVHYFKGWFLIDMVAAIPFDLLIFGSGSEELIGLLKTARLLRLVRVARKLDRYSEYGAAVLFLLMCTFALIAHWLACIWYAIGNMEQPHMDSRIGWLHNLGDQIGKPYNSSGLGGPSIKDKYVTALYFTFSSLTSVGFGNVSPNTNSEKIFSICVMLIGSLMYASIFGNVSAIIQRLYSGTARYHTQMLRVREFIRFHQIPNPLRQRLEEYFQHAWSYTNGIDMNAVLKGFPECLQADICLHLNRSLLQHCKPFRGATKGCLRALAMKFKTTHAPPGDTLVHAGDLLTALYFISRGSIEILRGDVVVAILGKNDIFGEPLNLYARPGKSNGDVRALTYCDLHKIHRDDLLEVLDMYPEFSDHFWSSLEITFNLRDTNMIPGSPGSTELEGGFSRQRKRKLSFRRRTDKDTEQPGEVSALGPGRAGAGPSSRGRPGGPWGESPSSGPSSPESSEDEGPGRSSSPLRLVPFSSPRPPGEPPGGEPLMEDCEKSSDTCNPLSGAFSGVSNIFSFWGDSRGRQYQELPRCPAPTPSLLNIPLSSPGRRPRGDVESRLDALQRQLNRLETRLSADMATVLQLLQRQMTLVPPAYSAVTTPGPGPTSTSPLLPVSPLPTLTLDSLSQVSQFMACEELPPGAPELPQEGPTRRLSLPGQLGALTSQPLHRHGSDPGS

Cytochrome P450 1A2 = biological target: T1, Cytochrome P450 1A2 (Homo sapiens, UniProt P05177); experiment: Inhibition of CYP1A2 (unknown origin); format: ADME
T1 sequence (P05177 whole entry): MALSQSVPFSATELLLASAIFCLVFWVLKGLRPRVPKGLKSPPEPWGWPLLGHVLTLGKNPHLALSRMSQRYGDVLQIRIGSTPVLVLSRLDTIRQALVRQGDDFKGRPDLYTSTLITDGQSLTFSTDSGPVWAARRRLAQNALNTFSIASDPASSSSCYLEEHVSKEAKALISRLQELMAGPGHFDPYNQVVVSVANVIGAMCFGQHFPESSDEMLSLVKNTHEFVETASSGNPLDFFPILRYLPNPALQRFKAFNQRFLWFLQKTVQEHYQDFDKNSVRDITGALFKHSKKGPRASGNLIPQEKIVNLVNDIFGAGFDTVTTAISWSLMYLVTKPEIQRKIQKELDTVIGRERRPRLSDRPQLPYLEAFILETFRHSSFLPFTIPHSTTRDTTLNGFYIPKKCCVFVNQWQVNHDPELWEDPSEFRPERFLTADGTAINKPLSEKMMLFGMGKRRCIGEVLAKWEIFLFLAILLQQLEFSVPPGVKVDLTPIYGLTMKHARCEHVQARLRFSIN

[10] = Lipophilicity, log D of the compound; format: physicochemical; conditions: octanol/water
Plasmodium falciparum [11] = experiment: microbe, parasite or virus in culture; conditions: SB1, 72 h
Description: Antiplasmodial activity against Plasmodium falciparum SB1 after 72 hrs by SYBR I method

Plasmodium falciparum [12] = experiment: microbe, parasite or virus in culture; conditions: W2, 72 h
Description: Antiplasmodial activity against Plasmodium falciparum W2 after 72 hrs by SYBR I method

Plasmodium falciparum [13] = experiment: microbe, parasite or virus in culture; conditions: 7G8, 72 h
Description: Antiplasmodial activity against Plasmodium falciparum 7G8 after 72 hrs by SYBR I method

Plasmodium falciparum [14] = experiment: microbe, parasite or virus in culture; conditions: Dd2, 72 h
Description: Antiplasmodial activity against Plasmodium falciparum Dd2 after 72 hrs by SYBR I method

Plasmodium falciparum [15] = experiment: Antiplasmodial activity against chloroquine and pyrimethamine-sensitive Plasmodium falciparum 3D7A assessed as parasite reduction ratio at 10 times IC50 after 48 hrs; format: functional, organism-based
Plasmodium falciparum [16] = experiment: Antiplasmodial activity against Plasmodium falciparum Dd2 harboring HSP90 mutant; format: functional, organism-based
Plasmodium falciparum [17] = experiment: Antiplasmodial activity against Plasmodium falciparum Dd2; format: functional, organism-based
Plasmodium falciparum [18] = experiment: Antiplasmodial activity against Plasmodium falciparum Dd2 harboring CYTb-Qi mutant; format: functional, organism-based
Plasmodium falciparum [19] = experiment: Antiplasmodial activity against Plasmodium falciparum Dd2 harboring DHODH mutant; format: functional, organism-based
Plasmodium falciparum [20] = experiment: Antiplasmodial activity against Plasmodium falciparum Dd2 harboring CRT mutant; format: functional, organism-based

SMILES | hepatocyte CLint [1] [µL/min/1e6 cells] | microsomal CLint [2] [µL/min/mg] | microsomal CLint [3] [µL/min/mg] | IC50 (Plasmodium falciparum [4]) [µM] | selectivity ratio [5] | IC50 (Plasmodium falciparum [6]) [µM] | IC50 [9] [µM] | IC50 (Plasmodium falciparum [11]) [µM] | IC50 (Plasmodium falciparum [12]) [µM] | IC50 (Plasmodium falciparum [13]) [µM] | also measured
Nc1nc2cnccc2n1CC(O)c1ccc(Cl)cc1Cl (racemic) | 14 | 5 | 41 | > 2 | > 25 | > 0.5 |  |  |  |  | 
Nc1nc2cccnc2n1CC(O)c1cccc(Cl)c1Cl (racemic) | 110 | 69 |  | 0.34 | 26 | 0.18 | > 33.3 |  |  |  | solubility [7]: 26 µM (≈ 8.4 µg/mL); IC50 (Cytochrome P450 2C19): 10.2 µM; fraction unbound [8]: 0.118; IC50 (Cytochrome P450 3A4): > 30 µM; IC50 (Cytochrome P450 2D6): > 30 µM; IC50 (Cytochrome P450 2C9): > 30 µM; IC50 (Cytochrome P450 1A2): 5.2 µM; logD [10]: 3
CN1CCN(c2ccc3nc(N)n(CC(O)c4ccc(C(F)(F)F)cc4Cl)c3n2)CC1 (racemic) | 106 | 21 | 102 | 0.089 | 348 | 0.085 | 12.2 | 0.22 | 0.156 | 0.0379 | solubility [7]: 118 µM (≈ 53.7 µg/mL); IC50 (Cytochrome P450 2C19): 5 µM; fraction unbound [8]: 0.234; IC50 (Cytochrome P450 3A4): 14.1 µM; IC50 (Cytochrome P450 2D6): 27.9 µM; IC50 (Cytochrome P450 2C9): > 30 µM; IC50 (Cytochrome P450 1A2): > 30 µM; IC50 (Plasmodium falciparum [14]): 0.37 µM; logD [10]: 2.8
Nc1nc2ccc(NCC(F)(F)F)nc2n1CC(O)c1ccc(Cl)cc1Cl (racemic) | 198 | 17 | 87 | 0.04 | 375 | 0.014 | 3.5 |  |  |  | 
Nc1nc2ccc(C3CC3)nc2n1CC(O)c1ccc(Cl)cc1Cl (racemic) | 94 | 47 | > 130 | 0.096 | > 260 | 0.022 |  |  |  |  | 
Nc1nc2ccc(C(=O)NC3CC3)nc2n1CC(O)c1ccc(Cl)cc1Cl (racemic) |  |  |  | > 2 | > 10 | > 0.5 |  |  |  |  | 
Nc1nc2ccc(OC3CCOC3)nc2n1CC(O)c1ccc(C(F)(F)F)cc1Cl (racemic) | 105 | 76 | 90 | 0.025 | 800 | 0.018 | 16.6 |  |  |  | solubility [7]: 160 µM (≈ 70.9 µg/mL); IC50 (Cytochrome P450 2C19): 0.78 µM; fraction unbound [8]: 0.026; IC50 (Cytochrome P450 3A4): 2.4 µM; IC50 (Cytochrome P450 2D6): 12.5 µM; IC50 (Cytochrome P450 2C9): > 30 µM; Activity (Plasmodium falciparum [15]): Active; IC50 (Cytochrome P450 1A2): > 30 µM; logD [10]: 3.7
Nc1nc2ccc(OC3CNC3)nc2n1CC(O)c1ccc(C(F)(F)F)cc1Cl (racemic) | 14 | < 4 |  | > 2 | > 50 | > 0.5 | > 33.3 |  |  |  | 
Nc1nnc(C2CC2)n1CC(O)c1ccc(C(F)(F)F)cc1Cl (racemic) |  |  |  | > 2 | > 50 | > 2 |  |  |  |  | 
Nc1nnnn1CC(O)c1c(Cl)cccc1Cl (racemic) |  |  |  | > 2 | > 50 | > 2 |  |  |  |  | 
Nc1ncccc1CC(O)c1cccc(Cl)c1Cl (racemic) |  |  |  | 0.18 | 294 | 0.05 |  | 0.472 | 0.11 | 0.0293 | IC50 (Plasmodium falciparum [14]): 0.41 µM
NC1=Nc2ccccc2CN1CC(O)c1ccc(Cl)cc1Cl (racemic) |  |  |  | 0.177 | 141 | 0.025 |  |  |  |  | 
C[C@@H]1CC[C@H]2[C@@H](C)C(=O)O[C@@H]3O[C@@]4(C)CC[C@@H]1[C@]32OO4 [ARTEMISININ] |  |  |  | 0.00705 |  | 0.00647 |  | 0.0166 | 0.00652 | 0.0013 | IC50 (Plasmodium falciparum [16]): 0.00129 µM; IC50 (Plasmodium falciparum [17]): 0.00151 µM; IC50 (Plasmodium falciparum [18]): 0.00126 µM; IC50 (Plasmodium falciparum [19]): 0.00181 µM; IC50 (Plasmodium falciparum [14]): 0.0103 µM; IC50 (Plasmodium falciparum [20]): 0.00184 µM
O=C1C(O)=C([C@H]2CC[C@H](c3ccc(Cl)cc3)CC2)C(=O)c2ccccc21 [ATOVAQUONE] |  |  |  | 0.00136 |  | 0.00226 |  | > 2 | 0.00116 | 0.00232 | 
COC1=C2C[C@@H](C)C[C@H](OC)[C@H](O)[C@@H](C)/C=C(\C)[C@H](OC(N)=O)[C@@H](OC)/C=C\C=C(/C)C(=O)NC(=CC1=O)C2=O [GELDANAMYCIN] |  |  |  |  |  |  |  |  |  |  | IC50 (Plasmodium falciparum [17]): 0.176 µM; IC50 (Plasmodium falciparum [18]): 0.169 µM; IC50 (Plasmodium falciparum [19]): 0.257 µM; IC50 (Plasmodium falciparum [20]): 0.204 µM
CCc1nc(N)nc(N)c1-c1ccc(Cl)cc1 [PYRIMETHAMINE] |  |  |  | 0.0283 |  | 8.56 |  | 0.0109 | 15.4 | 10 | IC50 (Plasmodium falciparum [14]): 13.8 µM
